Test: Glucose measurement (RTCM and glucose meter) in an awake diabetic rat after insulin injection
Type: in vivo
Conditions: conscious diabetic rat, after 40 minutes, same amount of insulin as in anesthetized rats
Protocol: FIGS. 6A-6B show glucose and insulin measurements in an awake diabetic rat. An awake diabetic rat was injected with human insulin, with blood samples collected at t=0, 5, 20, and 40 min after injection. Glucose levels were measured using RTCM and glucose meter (FIG. 6A), and insulin levels were measured using RTCM and ELISA (FIG. 6B).
Male Sprague Dawley rats (Charles River) were used for experiments. Animal studies were performed in accordance with the guidelines for the care and use of laboratory animals; all protocols were approved by the Stanford Institutional Animal Care and Use Committee. The protocol used for STZ induction adapted from the protocol by Kenneth K. Wu and Youming Huan (Wu, K. K., & Huan, Y. Streptozotocin-induced diabetic models in mice and rats. Curr. Protoc. Pharmacol. 5, 1-14 (2008)). Briefly, male Sprague Dawley rats 160-230 g (8-10 weeks) were weighed and fasted 6-8 hours prior to treatment with STZ. STZ was diluted to 10 mg/mL in the sodium citrate buffer immediately before injection. STZ solution was injected intraperitoneally at 65 mg/kg into each rat. Rats were provided with water containing 10% sucrose for 24 hours after injection with STZ. Rat blood glucose levels were tested for hyperglycemia daily after the STZ treatment via tail vein blood collection using a handheld Bayer Contour Next glucose monitor (Bayer). […]

Q: With “insulin: human insulin injected into an awake diabetic rat, same amount as in anesthetized rats; probably Humulin R” as the substance, how does the “Decrease in glucose level” value read?
A: 7 mM

— patent publication US12631626B2, “Continuous real-time monitoring of biomolecules in live subjects” (priority 2020, dated 2026)
